Measured values reported in US12172990B2 (Constellation Pharmaceuticals, Inc., priority 2018, dated 2024).

Key:
[1] = biological target: human TREX2 (residues M44-A279) (Homo sapiens (Human), UniProt Q9BQ50); assay: TREX2 Biochemical Assay (fluorescence assay measuring degradation of dsDNA substrate); conditions: 2.5 nM TREX2, 60 nM dsDNA substrate, 25 minutes at room temperature
Procedure: Degradation of the dsDNA liberates free fluorophore to produce a fluorescent signal. Specifically, 7.5 μL of N-terminally His-Tev tagged human TREX2 (residues M44-A279, expressed in E. coli and purified in house) in reaction buffer (50 mM Tris (pH 7.4), 150 mM NaCl, 2 mM DTT, 0.1 mg/mL BSA, 0.01% (v/v) Tween-20 and 100 mM MgCl2) was added to a 384-well Black ProxiPlate Plus (Perkin Elmer) which already contained compound (150 nL) at varying concentrations as a 10 point dose-response in DMSO. To this was added 7.5 μL of dsDNA substrate (Strand A: 5′ TEX615/GCT AGG CAG 3′; Strand B: 5′ CTG CCT AGC/IAbRQSp (IDT)) in reaction buffer. Final concentrations were 2.5 nM TREX2, 60 nM dsDNA substrate in reaction buffer with 1.0% DMSO (v/v). After 25 minutes at room temperature, reactions were quenched by the addition of 5 μL of stop buffer (same as reaction buffer plus 200 mM EDTA). Final concentrations in the quenched reaction mixture were […] TREX2, 45 nM DNA and 50 mM EDTA in a volume of 20 μL. After a 5-minute incubation at room temperature, plates were read in a laser sourced Envision (Perkin-Elmer), measuring fluorescence at 615 nm following excitation w/570 nm light. IC50 values were calculated by comparing the measured fluorescence at 615 nm ratio relative to control wells pre-quenched w/stop buffer (100% inhibition) and no inhibitor (0% inhibition) controls as using non-linear least square four parameter fits and either Genedata or GraphPad Prism (GraphPad Software, Inc.).

[2] = biological target: full length human TREX1 (Homo sapiens (Human), UniProt Q9NSU2); assay: TREX1 Biochemical Assay (fluorescence assay measuring degradation of dsDNA substrate); conditions: 150 pM TREX1, 60 nM dsDNA substrate, 25 minutes at room temperature
Sequence of full length human TREX1 (Q9NSU2 whole entry): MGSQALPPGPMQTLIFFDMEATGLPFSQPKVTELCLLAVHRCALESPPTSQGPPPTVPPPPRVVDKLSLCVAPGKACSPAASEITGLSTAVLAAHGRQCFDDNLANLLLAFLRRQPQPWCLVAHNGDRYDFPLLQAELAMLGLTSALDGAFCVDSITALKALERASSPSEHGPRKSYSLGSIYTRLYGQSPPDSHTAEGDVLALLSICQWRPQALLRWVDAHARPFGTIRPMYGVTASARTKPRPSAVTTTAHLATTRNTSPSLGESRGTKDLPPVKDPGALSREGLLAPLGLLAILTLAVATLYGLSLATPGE
Procedure: Degradation of the dsDNA liberates free fluorophore to produce a fluorescent signal. Specifically, 7.5 μL of N-terminally His-Tev tagged full length human TREX1 (expressed in E. coli and purified in house) in reaction buffer (50 mM Tris (pH 7.4), 150 mM NaCl, 2 mM DTT, 0.1 mg/mL BSA, 0.01% (v/v) Tween-20 and 100 mM MgCl2 were added to a 384-well Black ProxiPlate Plus (Perkin Elmer) which already contained compound (150 nL) at varying concentrations as a 10 point dose-response in DMSO. To this was added 7.5 μL of dsDNA substrate (Strand A: 5′ TEX615/GCT AGG CAG 3′; Strand B: 5′ CTG CCT AGC/IAbRQSp (Integrated DNA Technologies)) in reaction buffer. Final concentrations were 150 pM TREX1, 60 nM dsDNA substrate in reaction buffer with 1.0% DMSO (v/v). After 25 minutes at room temperature, reactions were quenched by the addition of 5 μL of stop buffer (same as reaction buffer plus 200 mM EDTA). Final concentrations in the quenched reaction were 112.5 pM TREX1, 45 nM DNA and 50 mM EDTA in a volume of 20 μL. After a 5-minute incubation at room temperature, plates were read in a laser sourced Envision (Perkin-Elmer), measuring fluorescence at 615 nm following excitation w/570 nm light. IC50 values were calculated by comparing the measured fluorescence at 615 nm ratio relative to control wells pre-quenched w/stop buffer (100% inhibition) and no inhibitor (0% inhibition) controls as using non-linear least square four parameter fits and either Genedata or GraphPad Prism (GraphPad Software, Inc.).

Sequence of human TREX2 (residues M44-A279) (Q9BQ50 whole entry, the tested form may be a part): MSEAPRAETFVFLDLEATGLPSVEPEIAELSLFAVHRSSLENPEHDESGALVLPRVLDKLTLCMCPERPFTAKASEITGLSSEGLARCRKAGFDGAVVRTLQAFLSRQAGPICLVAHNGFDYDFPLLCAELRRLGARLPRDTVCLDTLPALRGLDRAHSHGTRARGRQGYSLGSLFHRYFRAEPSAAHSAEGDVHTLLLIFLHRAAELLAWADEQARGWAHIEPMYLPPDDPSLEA

| IC50 [1] [nM] | IC50 [2] [nM] | Structure (SMILES) |
| --- | --- | --- |
| 10000 to 100000 | 100 to 1000 | Cc1cc(C(=O)NC2CCOCC2)cc(-c2nc(C(=O)Nc3cnoc3)c(O)c(=O)n2C)c1 [Example 37, 5-hydroxy-N-(isoxazol-4-yl)-1-methyl-2-(3-methyl-5-((tetrahydro-2H-pyran-4-yl)carbamoyl)phenyl)-6-oxo-1,6-dihydropyrimidine-4-carboxamide] |
| 10000 to 100000 | 100 to 1000 | Cn1c(-c2cnn(Cc3ccccc3)c2)nc(C(=O)Nc2cnoc2)c(O)c1=O [Example 42, 2-(1-benzyl-1H-pyrazol-4-yl)-5-hydroxy-N-(isoxazol-4-yl)-1-methyl-6-oxo-1,6-dihydropyrimidine-4-carboxamide] |
| 10000 to 100000 | 100 to 1000 | Cn1c(N2CCCC[C@H]2CCO)nc(C(=O)Nc2cnoc2)c(O)c1=O [Example 106, (S)-5-hydroxy-2-(2-(2-hydroxyethyl)piperidin-1-yl)-N-(isoxazol-4-yl)-1-methyl-6-oxo-1,6-dihydropyrimidine-4-carboxamide] |
| 1000 to 10000 | < 100 | Cn1c(-c2cccc(Br)c2)nc(C(=O)Nc2cnoc2)c(O)c1=O [Example 10, 2-(3-bromophenyl)-5-hydroxy-N-(isoxazol-4-yl)-1-methyl-6-oxo-1,6-dihydropyrimidine-4-carboxamide] |
| 10000 to 100000 | 1000 to 10000 | Cn1c(C2CCCN(Cc3ccccc3)C2)nc(C(=O)Nc2cnoc2)c(O)c1=O (stereo not drawn) [Example 39, 2-(1-benzylpiperidin-3-yl)-5-hydroxy-N-(isoxazol-4-yl)-1-methyl-6-oxo-1,6-dihydropyrimidine-4-carboxamide] |
| > 100000 | > 10000 | Cn1c(C2CCCN(CCc3ccccc3)C2)nc(C(=O)Nc2cnoc2)c(O)c1=O (stereo not drawn) [Example 129, 5-hydroxy-N-(isoxazol-4-yl)-1-methyl-6-oxo-2-(1-phenethylpiperidin-3-yl)-1,6-dihydropyrimidine-4-carboxamide] |
| 1000 to 10000 | 100 to 1000 | Cc1ccc(Br)cc1-c1nc(C(=O)Nc2cnoc2)c(O)c(=O)n1C [Example 4, 2-(5-bromo-2-methylphenyl)-5-hydroxy-N-(isoxazol-4-yl)-1-methyl-6-oxo-1,6-dihydropyrimidine-4-carboxamide] |
| 10000 to 100000 | 100 to 1000 | Cc1cc(C(=O)NCCO)cc(-c2nc(C(=O)Nc3cnoc3)c(O)c(=O)n2C)c1 [Example 38, 5-hydroxy-2-(3-((2-hydroxyethyl)carbamoyl)-5-methylphenyl)-N-(isoxazol-4-yl)-1-methyl-6-oxo-1,6-dihydropyrimidine-4-carboxamide] |
| 10000 to 100000 | 100 to 1000 | Cn1c(-c2ccc(Br)cc2)nc(C(=O)Nc2cnoc2)c(O)c1=O [Example 11, 2-(4-bromophenyl)-5-hydroxy-N-(isoxazol-4-yl)-1-methyl-6-oxo-1,6-dihydropyrimidine-4-carboxamide] |
| 10000 to 100000 | 100 to 1000 | Cc1cc(-c2nc(C(=O)Nc3cnoc3)c(O)c(=O)n2C)cc(N2CCN(C)CC2)c1 [Example 33, 5-hydroxy-N-(isoxazol-4-yl)-1-methyl-2-(3-methyl-5-(4-methylpiperazin-1-yl)phenyl)-6-oxo-1,6-dihydropyrimidine-4-carboxamide] |
| 10000 to 100000 | 100 to 1000 | Cn1c(-c2ccccc2N[C@H]2C[C@@H](O)C2)nc(C(=O)Nc2cnoc2)c(O)c1=O [Example 76, 5-hydroxy-2-(2-(((1s,3s)-3-hydroxycyclobutyl)amino)phenyl)-N-(isoxazol-4-yl)-1-methyl-6-oxo-1,6-dihydropyrimidine-4-carboxamide] |
| 1000 to 10000 | 100 to 1000 | Cn1c(C(NC(=O)OCc2ccccc2)c2ccccc2)nc(C(=O)Nc2cnoc2)c(O)c1=O (stereo not drawn) [Example 23, benzyl ((5-hydroxy-4-(isoxazol-4-ylcarbamoyl)-1-methyl-6-oxo-1,6-dihydropyrimidin-2-yl)(phenyl)methyl)carbamate] |
| 1000 to 10000 | < 100 | Cn1c(OC2CCCCC2)nc(C(=O)Nc2cnoc2)c(O)c1=O [Example 121, 2-(cyclohexyloxy)-5-hydroxy-N-(isoxazol-4-yl)-1-methyl-6-oxo-1,6-dihydropyrimidine-4-carboxamide] |
| 10000 to 100000 | 1000 to 10000 | C[C@@H]1CC[C@H](c2nc(C(=O)Nc3cnoc3)c(O)c(=O)n2C)CN1C(=O)c1ccc(Cl)c(Cl)c1 [Example 83, 2-((3S,6R)-1-(3,4-dichlorobenzoyl)-6-methylpiperidin-3-yl)-5-hydroxy-N-(isoxazol-4-yl)-1-methyl-6-oxo-1,6-dihydropyrimidine-4-carboxamide] |
| 10000 to 100000 | 100 to 1000 | Cn1c(C2(Cc3ccccc3)CCCN(C(=O)OC(C)(C)C)C2)nc(C(=O)Nc2cnoc2)c(O)c1=O (stereo not drawn) [Example 50, tert-butyl 3-benzyl-3-(5-hydroxy-4-(isoxazol-4-ylcarbamoyl)-1-methyl-6-oxo-1,6-dihydropyrimidin-2-yl)piperidine-1-carboxylate] |
| 10000 to 100000 | 100 to 1000 | Cn1c([C@@H]2CCN(C(=O)c3ccc(Cl)cc3)C2)nc(C(=O)Nc2cnoc2)c(O)c1=O [Example 86, (R)-2-(1-(4-chlorobenzoyl)pyrrolidin-3-yl)-5-hydroxy-N-(isoxazol-4-yl)-1-methyl-6-oxo-1,6-dihydropyrimidine-4-carboxamide] |
| 1000 to 10000 | 100 to 1000 | Cc1cc(Nc2cccc(C)n2)cc(-c2nc(C(=O)Nc3cnoc3)c(O)c(=O)n2C)c1 [Example 34, 5-hydroxy-N-(isoxazol-4-yl)-1-methyl-2-(3-methyl-5-((6-methylpyridin-2-yl)amino)phenyl)-6-oxo-1,6-dihydropyrimidine-4-carboxamide] |
| 1000 to 10000 | < 100 | Cc1cc(Br)cc(-c2nc(C(=O)Nc3cnoc3)c(O)c(=O)n2C)c1 [Example 1, 2-(3-bromo-5-methylphenyl)-5-hydroxy-N-(isoxazol-4-yl)-1-methyl-6-oxo-1,6-dihydropyrimidine-4-carboxamide] |
| 1000 to 10000 | < 100 | Cn1c(C2CCCN(C(=O)c3cccc(Cl)c3)C2)nc(C(=O)Nc2cnoc2)c(O)c1=O (stereo not drawn) [Example 45, 2-(1-(3-chlorobenzoyl)piperidin-3-yl)-5-hydroxy-N-(isoxazol-4-yl)-1-methyl-6-oxo-1,6-dihydropyrimidine-4-carboxamide] |
| 1000 to 10000 | < 100 | Cn1c(N2CCC[C@H]2c2ccccc2)nc(C(=O)Nc2cnoc2)c(O)c1=O [Example 112, (S)-5-hydroxy-N-(isoxazol-4-yl)-1-methyl-6-oxo-2-(2-phenylpyrrolidin-1-yl)-1,6-dihydropyrimidine-4-carboxamide] |
| 10000 to 100000 | 100 to 1000 | CC(C)CNC(=O)N1CCCC(c2nc(C(=O)Nc3cnoc3)c(O)c(=O)n2C)C1 (stereo not drawn) [Example 95] |
| 1000 to 10000 | < 100 | C[C@H]1CC[C@H](c2nc(C(=O)Nc3cnoc3)c(O)c(=O)n2C)CN1C(=O)c1ccc(Cl)c(Cl)c1 [Example 84, 2-((3S,6S)-1-(3,4-dichlorobenzoyl)-6-methylpiperidin-3-yl)-5-hydroxy-N-(isoxazol-4-yl)-1-methyl-6-oxo-1,6-dihydropyrimidine-4-carboxamide] |
| 1000 to 10000 | 100 to 1000 | COc1cccc(C(=O)N2CCCC(c3nc(C(=O)Nc4cnoc4)c(O)c(=O)n3C)C2)c1 (stereo not drawn) [Example 48, 5-hydroxy-N-(isoxazol-4-yl)-2-(1-(3-methoxybenzoyl)piperidin-3-yl)-1-methyl-6-oxo-1,6-dihydropyrimidine-4-carboxamide] |
| 10000 to 100000 | 100 to 1000 | Cn1c(Cc2ccccc2)nc(C(=O)Nc2cnoc2)c(O)c1=O [Example 6, 2-benzyl-5-hydroxy-N-(isoxazol-4-yl)-1-methyl-6-oxo-1,6-dihydropyrimidine-4-carboxamide] |
